Assay results published in patent publication US4048299A, “Anticaries confectionaries and oral health products” (William Wrigley, Jr. Co., priority 1970, dated 1977).

Columns and labels:
[1] = test system: Mixed Oral Microorganisms; assay: Acid production inhibition, broth-tube technique; details: single agent
Description: The data was compiled through well-known broth tube analysis techniques.
(a)Measured by broth-tube technique.

[2] = In vivo caries evaluation, albino hamster; details: Table I, 56 days
Description: (§1) Standard laboratory techniques were used to complie the data presented. In each case the aldehyde was incorporated into each specimen's food in a one percent, by weight, quantity, over a period of several weeks. In all cases, caries reduction was noted.
(§2) The aldehydes tested in vivo were pyruvaldehyde, d,1-glyceraldehyde, crystalline dimer, glycolaldehyde, octanaldehyde, nonanaldehyde, decanaldehyde, undecylenic aldehyde, and lauric aldehyde. The polyaldehydes tested were dialdehyde starch, dialdehyde starch 50 percent oxidized, dialdehyde starch 90 percent oxidized, and dialdehyde galactomannan gum.
(§3) ^(a) Agents were incorporated in the diet at a 1 percent level.

[3] = test system: Mixed human oral microorganisms; assay: Acid production inhibition by aldehydes in product vehicles, broth-tube technique; format: cell-based; details: 1 to 5 percent aldehyde
Streptococcus spp. KI-R = assay: as above; format: cell-based; details: 1 to 5 percent aldehyde
[4] = In vivo caries evaluation, Osborne-Mendel strain 2 rat; design: species or system rat (Osborne-Mendel strain 2); details: Table I, 90 days
Description: as §1, §2, §3

[5] = Student's test, 95 percent confidence limit
[6] = in compressed candy tablet, 2 h incubation
[7] = in compressed candy tablet, 5 h incubation
[8] = in compressed candy tablet, 24 h incubation
[9] = in dextrose syrup, 2 h incubation
[10] = in dextrose syrup, 5 h incubation
[11] = in dextrose syrup, 24 h incubation
[12] = in sucrose syrup, 2 h incubation
[13] = in sucrose syrup, 5 h incubation
[14] = in sucrose syrup, 24 h incubation
[15] = in tooth powder (aqueous extract), 2 h incubation
[16] = in tooth powder (aqueous extract), 5 h incubation
[17] = in tooth powder (aqueous extract), 24 h incubation
[18] = in toothpaste (aqueous extract), 2 h incubation
[19] = in toothpaste (aqueous extract), 5 h incubation
[20] = in toothpaste (aqueous extract), 24 h incubation

O=C[C@H](O)CO (racemic) [d,1-Glyceraldehyde]
Acid Production Inhibition ([1]; 0.03 percent): 7%
Acid Production Inhibition ([1]; 0.04 percent): 12%
Acid Production Inhibition ([1]; 0.05 percent): 19%
Acid Production Inhibition ([1]; 0.06 percent): 30%
Acid Production Inhibition ([1]; 0.07 percent): 40%
Caries Score, Mean Incidence ([2]; 1 percent in diet, L-2000 control 27.5): 8.0
Caries Score, Mean Extent ([2]; 1 percent in diet, L-2000 control 80.9): 21.8
Caries Extent Reduction, statistical evaluation [2, 5]: Significant
Caries Incidence Reduction, statistical evaluation [2, 5]: Significant
Acid Production Inhibition [3, 6]: 0 Per Cent
Acid Production Inhibition [3, 7]: 91 Per Cent
Acid Production Inhibition [3, 8]: 87 Per Cent
Acid Production Inhibition [3, 9]: 8 Per Cent
Acid Production Inhibition [3, 10]: 90 Per Cent
Acid Production Inhibition [3, 11]: 77 Per Cent
Acid Production Inhibition ([3]; in mouthwash, 2 h incubation): 0 Per cent
Acid Production Inhibition ([3]; in mouthwash, 5 h incubation): 91 Per cent
Acid Production Inhibition ([3]; in mouthwash, 24 h incubation): 39 Per cent
Acid Production Inhibition [3, 12]: 72 Per cent
Acid Production Inhibition [3, 13]: 93 Per cent
Acid Production Inhibition [3, 14]: 16 Per cent
Acid Production Inhibition [3, 15]: 0 Per cent
Acid Production Inhibition [3, 16]: 48 Per cent
Acid Production Inhibition [3, 17]: 18 Per cent
Acid Production Inhibition [3, 18]: 0 Per cent
Acid Production Inhibition [3, 19]: 0 Per cent
Acid Production Inhibition [3, 20]: 0 Per cent
Acid Production Inhibition (Streptococcus spp. KI-R; [6]): 0 Per Cent
Acid Production Inhibition (Streptococcus spp. KI-R; [7]): 25 Per Cent
Acid Production Inhibition (Streptococcus spp. KI-R; [8]): 84 Per Cent
Acid Production Inhibition (Streptococcus spp. KI-R; [9]): 48 Per Cent
Acid Production Inhibition (Streptococcus spp. KI-R; [10]): 86 Per Cent
Acid Production Inhibition (Streptococcus spp. KI-R; [11]): 82 Per Cent
Acid Production Inhibition (Streptococcus spp. KI-R; in mouthwash, 2 h incubation): 0 Per cent
Acid Production Inhibition (Streptococcus spp. KI-R; in mouthwash, 5 h incubation): 0 Per cent
Acid Production Inhibition (Streptococcus spp. KI-R; in mouthwash, 24 h incubation): 86 Per cent
Acid Production Inhibition (Streptococcus spp. KI-R; [12]): 69 Per cent
Acid Production Inhibition (Streptococcus spp. KI-R; [13]): 88 Per cent
Acid Production Inhibition (Streptococcus spp. KI-R; [14]): 86 Per cent
Acid Production Inhibition (Streptococcus spp. KI-R; [15]): 0 Per cent
Acid Production Inhibition (Streptococcus spp. KI-R; [16]): 0 Per cent
Acid Production Inhibition (Streptococcus spp. KI-R; [17]): 0 Per cent
Acid Production Inhibition (Streptococcus spp. KI-R; [18]): 0 Per cent
Acid Production Inhibition (Streptococcus spp. KI-R; [19]): 0 Per cent
Acid Production Inhibition (Streptococcus spp. KI-R; [20]): 0 Per cent

CC(=O)C=O [Pyruvaldehyde]
Acid Production Inhibition ([1]; 0.005 percent): 5%
Acid Production Inhibition ([1]; 0.007 percent): 5%
Acid Production Inhibition ([1]; 0.009 percent): 7%
Acid Production Inhibition ([1]; 0.011 percent): 7%
Solubility: water soluble
Caries Score, Mean Incidence ([4]; 1 percent in diet, L-2000 control 15.08 (pyruvaldehyde test), 13.94 (glycolaldehyde test)): 5.95
Caries Score, Mean Extent ([4]; 1 percent in diet, L-2000 control 38.80 (pyruvaldehyde test), 35.38 (glycolaldehyde test)): 14.55
Caries Extent Reduction, statistical evaluation [4, 5]: Significant
Caries Incidence Reduction, statistical evaluation [4, 5]: Significant
Acid Production Inhibition [3, 6]: 0 Per Cent
Acid Production Inhibition [3, 7]: 89 Per Cent
Acid Production Inhibition [3, 8]: 78 Per Cent
Acid Production Inhibition [3, 9]: 15 Per Cent
Acid Production Inhibition [3, 10]: 89 Per Cent
Acid Production Inhibition [3, 11]: 83 Per Cent
Acid Production Inhibition ([3]; in hard candy, 2 h incubation): 20 Per Cent
Acid Production Inhibition ([3]; in hard candy, 5 h incubation): 93 Per Cent
Acid Production Inhibition ([3]; in hard candy, 24 h incubation): 84 Per Cent
Acid Production Inhibition ([3]; in mouthwash, 2 h incubation): 0 Per cent
Acid Production Inhibition ([3]; in mouthwash, 5 h incubation): 94 Per cent
Acid Production Inhibition ([3]; in mouthwash, 24 h incubation): 87 Per cent
Acid Production Inhibition [3, 12]: 77.8 Per cent
Acid Production Inhibition [3, 13]: 92.1 Per cent
Acid Production Inhibition [3, 14]: 91.8 Per cent
Acid Production Inhibition [3, 15]: 0 Per cent
Acid Production Inhibition [3, 16]: 86 Per cent
Acid Production Inhibition [3, 17]: 80 Per cent
Acid Production Inhibition [3, 18]: 0 Per cent
Acid Production Inhibition [3, 19]: 0 Per cent
Acid Production Inhibition [3, 20]: 0 Per cent
Acid Production Inhibition (Streptococcus spp. KI-R; [6]): 0 Per Cent
Acid Production Inhibition (Streptococcus spp. KI-R; [7]): 30 Per Cent
Acid Production Inhibition (Streptococcus spp. KI-R; [8]): 83 Per Cent
Acid Production Inhibition (Streptococcus spp. KI-R; [9]): 57 Per Cent
Acid Production Inhibition (Streptococcus spp. KI-R; [10]): 86 Per Cent
Acid Production Inhibition (Streptococcus spp. KI-R; [11]): 82 Per Cent
Acid Production Inhibition (Streptococcus spp. KI-R; in hard candy, 2 h incubation): 40 Per Cent
Acid Production Inhibition (Streptococcus spp. KI-R; in hard candy, 5 h incubation): 87 Per Cent
Acid Production Inhibition (Streptococcus spp. KI-R; in hard candy, 24 h incubation): 86 Per Cent
Acid Production Inhibition (Streptococcus spp. KI-R; in mouthwash, 2 h incubation): 0 Per cent
Acid Production Inhibition (Streptococcus spp. KI-R; in mouthwash, 5 h incubation): 0 Per cent
Acid Production Inhibition (Streptococcus spp. KI-R; in mouthwash, 24 h incubation): 86 Per cent
Acid Production Inhibition (Streptococcus spp. KI-R; [12]): 37.5 Per cent
Acid Production Inhibition (Streptococcus spp. KI-R; [13]): 82.3 Per cent
Acid Production Inhibition (Streptococcus spp. KI-R; [14]): 86.4 Per cent
Acid Production Inhibition (Streptococcus spp. KI-R; [15]): 0 Per cent
Acid Production Inhibition (Streptococcus spp. KI-R; [16]): 0 Per cent
Acid Production Inhibition (Streptococcus spp. KI-R; [17]): 0 Per cent
Acid Production Inhibition (Streptococcus spp. KI-R; [18]): 0 Per cent
Acid Production Inhibition (Streptococcus spp. KI-R; [19]): 0 Per cent
Acid Production Inhibition (Streptococcus spp. KI-R; [20]): 0 Per cent
